{
  "source": "patent US10722491B2",
  "about": "“Phenol compound and combination of same with a benzodiazepine fused to 1,4-dihydropyridine for treating diseases of the central nervous and vascular systems” (UNIVERSIDAD DE LA HABANA, priority 2016, dated 2020)",
  "key": {"[1]": {"test": "KM-34 capacity to reduce DPPH radicals", "format": "biochemical", "protocol": "FIG. 1. Percentage reduction of DPPH (100 μM) by KM-34 (5-400 μM) was determined by changing in the absorbance at 550 nm from a target containing only DPPH and vehicle (zero concentration of KM −34 or AA), after 30 minutes of reaction. Values are expressed as the mean ± SD (n=3). *P<0.05 with respect to the vehicle.\nOne of the most commonly used methods to estimate antioxidant activity is to evaluate the ability of different compounds to reduce DPPH radicals, which can be determined spectrophotometrically (Brand-Williams et al., 1995). […] Electron delocalization causes the intense violet coloration of the DPPH radical form when it is prepared in ethanol solution (Molyneux et al., 2004).\nThe IC 50 value obtained for KM was approximately 2.4 times lower than that obtained for ascorbic acid (AA) used as the reference compound."}, "PC12 cells [2]": {"tested_on": "PC12 cells", "test": "Cytoprotection against FeSO4/AA damage in PC12 cells (MTT)", "format": "cell-based", "protocol": "FIG. 8. Cytoprotective effect of KM-34 (0.001-10 μM) against damage induced by FeSO4 (5 mmol/L) and ascorbic acid (AA, 2 mmol/L) in cultures of PC12 cells. Viability 1% live cells) was determined by the MTT assay. Cells were seeded at a density of 5×10^5 cells/mL in a 96-well plate. The KM-34 was added simultaneously to the addition of the mixture of FeSO 4 and AA. The culture was then allowed to incubate at 37° C, […] and 5% CO 2 for 4 hours. After this time the supernatant was removed and the cells were incubated with 20 μg of MTT for a further 2 hours and the absorbance at 450 nm was measured with reference to 630 nm. The results are expressed as percentage of live cells relative to the control (undamaged cells, 100% live cells. *Represents significant differences (p<0.05) with respect to FeSO4/AA control.\nThe FeSO4/AA system is a strong catalyst for oxidative reactions in cells such as PC12 leading to their death (Hiroi et al., 2005; Núñez et al., 2011). […] At concentrations greater than 1 μM the % cell survival was greater than 90% (FIG. 8)."}, "PC12 cells [3]": {"tested_on": "PC12 cells", "test": "Cytoprotection against L-glutamate damage in PC12 cells (MTT)", "format": "cell-based", "conditions": "50 mM L-glutamate", "protocol": "FIG. 6. Cytoprotective effect of KM-34 10001-10 HM) against damage induced by L-glutamate (50 mmol/L) in cultures of PC12 cells. Viability (% live cells) was determined by the MTT assay. Cells were seeded at a density of 5×10^5 cells/mL in a 96-well plate. KM-34 was added simultaneously to the addition of L-glutamate. The culture was then allowed to incubate at 37° C, […] and 5% CO 2 for 4 hours. After this time the supernatant was removed and the cells were incubated with 20 μg of MTT for an additional 2 hours and the absorbance at 450 nm was measured with reference to 630 nm. The results are expressed as percentage of live cells relative to the control (cells without damage, 100% of live cells. * Represents significant differences (p<0.05) with respect to the L-glutamate control.\nFIG. 14. The survival rate for […] administered 50 mM Glutamate is shown. The control group was not administered 50 mM Glutamate. The remaining four groups were administered 50 mM Glutamate. The “Glu 50 mM” group was not administered any compounds of the invention. The “JM 0.01 μM” group was administered 0.01 μM JM-20. The “KM 0.01 μM” group was administered 0.01 μM KM-34. The “JM 0.01 μM+KM 0.01 μM” group was administered 0.01 μM JM-20 and 0.01 μM KM-34.\nAt values above 1 μM KM-34, the cytoprotection response is greater than 80%."}, "[4]": {"tested_on": "occlusion of the middle cerebral artery in rats", "test": "Transient middle cerebral artery occlusion, neurological deficit score", "format": "in vivo", "conditions": "0.5 and 1 mg/kg oral, 1 hour after reperfusion", "protocol": "FIG. 13. Acute treatment with KM-34 reduced the volume of infarction edema and deficit in rat behavior after 90 min of middle cerebral artery occlusion (MACA) and 23 hours of reperfusion. The different doses of the compound were administered orally 1 hour after reperfusion. (A) Representative brain coronal sections (2 mm thick) of the sham and ischemic groups treated with vehicle or KM-34 (0.1, 0.5 or 1 mg/kg) and stained with 2,3,5-triphenyltetrazolium (TTC) 2%. The red regions correspond to undamaged tissue and white to ischemic regions. (B) Quantitative analysis of cortical, subcortical and total lesion size. (C) Neurological deficit. The bars represent the mean ± SEM (n=8). Different letters in (A) and * in (B): p<0.05, by ANOVA and post hoc of Newman-Keuls. Scale=10 mm. […]\nTransient cerebral ischemia was performed by the OACM, using the intraluminal filament method. […] After 23 hours of reperfusion, the neurological deficit was evaluated and the animals sacrificed to determine the infarct volume and perform the behavioral evaluations.\nNeurological deficit was assessed according to a six-point scale: 0=no observable neurological deficit; 1=no extension of the left front leg; 2=shifts in circles to the left if the animal is suspended by the tail; 3=spontaneous displacements in circles to the left; 4=no spontaneous motor activity with decreased level of consciousness; 5=death."}},
  "data": [
    {"smiles": "CC1(C)OC(=O)C(=Cc2ccc(O)c(O)c2)C(=O)O1", "note": "[KM-34, 5-[(3,4-dihydroxyphenyl)methylidene]-2,2-dimethyl-1,3-dioxane-4,6-dione]", "values": [
      {"measurement": "IC50", "setting": "[1]; DPPH 100 μM, 30 minutes of reaction, read-out: IC50, reduction of DPPH radicals", "value": 16.3, "unit": "µM"},
      {"measurement": "IC50 of KM relative to ascorbic acid (times lower)", "setting": "[1]; DPPH, AA as reference compound", "value": "approximately 2.4 times"},
      {"measurement": "Concentration giving significant (p<0.05) inhibition of the DPPH radical vs vehicle", "setting": "[1]; after 30 minutes of reaction", "value": "higher than 5 μM"},
      {"measurement": "DPPH reduction response", "setting": "[1]; at concentrations above 50 μM", "value": "reached its maximum response"},
      {"measurement": "Concentration showing cytoprotective effects against FeSO4/AA", "setting": "PC12 cells [2]; FeSO4 5 mmol/L and AA 2 mmol/L, 4 hours", "value": "higher than 0.001 μM"},
      {"measurement": "Cells surviving oxidizing conditions", "setting": "PC12 cells [2]; FeSO4/AA, concentrations between 0.01-10 μM", "value": "90 out of 100 cells"},
      {"measurement": "% cell survival", "setting": "PC12 cells [2]; FeSO4/AA, concentrations greater than 1 μM", "value": "greater than 90%"},
      {"measurement": "Concentration significantly (P<0.01) inhibiting cell damage by L-glutamate", "setting": "PC12 cells [3]; 4 hours", "value": "greater than 0.01 μM"},
      {"measurement": "Cytoprotection response", "setting": "PC12 cells [3]; above 1 μM KM-34", "value": "greater than 80%"},
      {"measurement": "Neurological deficit (neurological score)", "setting": "[4]", "value": "significantly improved (p<0.05) the neurological deficit"}
    ]}
  ]
}
